Test results: paper PMC10649961, “Novel Mitochondria-Targeted Amphiphilic Aminophosphonium Salts and Lipids Nanoparticles: Synthesis, Antitumor Activity and Toxicity” (Nanomaterials, 2023)
Like-named read-outs stand apart in the source and are kept apart here.

Legend:
T98G [1] = details: calculated relative to the cell line Chang liver (b)
HuTu 80 [2] = experiment: cells; details: Homo sapiens, HuTu80, 48 h, read-out: Cytotoxic Effects (IC50)
T98G [3] = experiment: cells; details: Homo sapiens, 48 h, read-out: Cytotoxic Effects (IC50)
[4] = tested on: Candida albicans ATCC 10231; experiment: Antimicrobial activity, serial microdilutions, Ca; format: cell-based; design: key to Minimum Inhibitory Concentration (MIC) / Minimum bactericidal and fungicidal concentrations (MBC, MFC): – means non-active; details: for MIC: read-out: Minimum Inhibitory Concentration (MIC)
Description: (§1) The antimicrobial activity of test compounds was determined by serial microdilutions in 96-well plates using Mueller-Hinton broth for bacterial culture and Sabouraud broth for yeast culture. Cultures of Gram-positive bacteria were used in the experiment: Staphylococcus aureus ATCC 6538 P FDA 209P, Bacillus cereus ATCC 10702 NCTC 8035, Enterococcus faecalis ATCC 29212; Gram-negative bacteria: Escherichia coli ATCC 25922, Pseudomonas aeruginosa ATCC 9027; and yeast: Candida albicans ATCC 10231, purchased from the State Collection of Pathogenic Microorganisms and Cell Cultures “SCPM-Obolensk” (Obolensk, Russia). Methicillin-resistant strains of S. aureus (MRSA) were isolated from patients with chronic tonsillitis (MRSA-1) and sinusitis (MRSA-2) in the bacteriological laboratory of the Republican Clinical Hospital (Kazan, Russia). The experiments were carried out in triplicate.

MRSA-2 = experiment: Antimicrobial activity, serial microdilutions, MRSA-2; format: cell-based, S. aureus; details: Staphylococcus aureus; for MIC: read-out: Minimum Inhibitory Concentration (MIC); for MBC: read-out: Minimum bactericidal and fungicidal concentrations (MBC, MFC)
Description: as §1

A549 [5] = experiment: cells; details: Homo sapiens, A549, 48 h, read-out: Cytotoxic Effects (IC50)
MRSA-1 = experiment: Antimicrobial activity, serial microdilutions, MRSA-1; format: cell-based, S. aureus; details: Staphylococcus aureus; for MIC: read-out: Minimum Inhibitory Concentration (MIC); for MBC: read-out: Minimum bactericidal and fungicidal concentrations (MBC, MFC)
Description: as §1

HuTu 80 [6] = tested on: HuTu 80
[7] = tested on: Escherichia coli ATCC 25922; experiment: Antimicrobial activity, serial microdilutions, Ec; format: cell-based; details: Escherichia coli; for MIC: ATCC25922, read-out: Minimum Inhibitory Concentration (MIC); for MBC: ATCC25922, read-out: Minimum bactericidal and fungicidal concentrations (MBC, MFC)
Description: as §1

MCF-7 [8] = experiment: cells; details: Homo sapiens, MCF7, 48 h, read-out: Cytotoxic Effects (IC50)
DU-145 [9] = details: calculated relative to the cell line Chang liver (b)
A549 [10] = tested on: A549
PANC-1 [11] = experiment: cells; details: Homo sapiens, PANC-1, 48 h, read-out: Cytotoxic Effects (IC50)
[12] = tested on: Pseudomonas aeruginosa ATCC 9027; experiment: Antimicrobial activity, serial microdilutions, Pa; format: cell-based; details: Pseudomonas aeruginosa; for MIC: ATCC9027, read-out: Minimum Inhibitory Concentration (MIC); for MBC: ATCC9027, read-out: Minimum bactericidal and fungicidal concentrations (MBC, MFC)
Description: as §1

[13] = tested on: Staphylococcus aureus ATCC 6538 P FDA 209P; experiment: Antimicrobial activity, serial microdilutions, Sa; format: cell-based; details: Staphylococcus aureus; for MIC: read-out: Minimum Inhibitory Concentration (MIC); for MBC: read-out: Minimum bactericidal and fungicidal concentrations (MBC, MFC)
Description: as §1

M-HeLa [14] = experiment: cells; details: Homo sapiens, 48 h, read-out: Cytotoxic Effects (IC50)
Hep G2 [15] = details: calculated relative to the cell line Chang liver (b)
DU-145 [16] = experiment: cells; details: Homo sapiens, DU-145, 48 h, read-out: Cytotoxic Effects (IC50), DU-145, MTT assay, 48 h
[17] = tested on: Bacillus cereus ATCC 10702 NCTC 8035; experiment: Antimicrobial activity, serial microdilutions, Bc; format: cell-based; details: Bacillus cereus; for MIC: Bc, read-out: Minimum Inhibitory Concentration (MIC); for MBC: read-out: Minimum bactericidal and fungicidal concentrations (MBC, MFC)
Description: as §1

SK-OV-3 [18] = tested on: SK-OV-3
SK-OV-3 [19] = experiment: cells; details: Homo sapiens, SK-OV-3, 48 h, read-out: Cytotoxic Effects (IC50)
Hep G2 [20] = experiment: cells; details: Homo sapiens, HepG2, 48 h, read-out: Cytotoxic Effects (IC50)
PC3 [21] = experiment: cells; details: Homo sapiens, PC-3, 48 h, read-out: Cytotoxic Effects (IC50), PC3, MTT assay, 48 h
PC3 [22] = details: calculated relative to the cell line Chang liver (b)
M-HeLa [23] = tested on: M-HeLa
MCF-7 [24] = details: calculated relative to the cell line Chang liver (b)
PANC-1 [25] = tested on: PANC-1
[26] = tested on: Enterococcus faecalis ATCC 29212; experiment: Antimicrobial activity, serial microdilutions, Ef; format: cell-based; details: Enterococcus faecalis; for MIC: ATCC29212, read-out: Minimum Inhibitory Concentration (MIC); for MBC: ATCC29212, read-out: Minimum bactericidal and fungicidal concentrations (MBC, MFC)
Description: as §1

[27] = calculated relative to the cell line Chang liver (b)
[28] = reference normal cell line not marked at the place (ns cells)

Row | SMILES | selectivity index (SI) (T98G [1]) | IC50 (HuTu 80 [2]) [µM] | IC50 (T98G [3]) [µM] | MIC ([4]; Candida albicans, ATCC10231) [µM] | MIC (MRSA-2) [µM] | MBC (MRSA-2) [µM] | IC50 (A549 [5]) [µM] | MIC (MRSA-1) [µM] | MBC (MRSA-1) [µM] | MIC [7] [µM] | MBC [7] [µM] | IC50 (MCF-7 [8]) [µM] | selectivity index (SI) (DU-145 [9]) | IC50 (PANC-1 [11]) [µM] | MIC [12] [µM] | MBC [12] [µM] | MIC [13] [µM] | MBC [13] [µM] | IC50 (M-HeLa [14]) [µM] | selectivity index (SI) (Hep G2 [15]) | other results
1 | CCCCCCCCCCCCCC[P+](N(CC)CC)(N(CC)CC)N(CC)CC [4e, Tris(diethylamino)(tetradecyl)phosphonium bromide] | 1.7 | 0.06 ± 0.005 | 1 ± 0.09 | 1.9 ± 0.1 | 0.25 ± 0.02 | 0.25 ± 0.02 | 1.7 ± 0.1 | 0.5 ± 0.04 | 0.5 ± 0.04 | 15.6 ± 1.3 | 62.5 ± 5.2 | 0.9 ± 0.07 | 4.3 | 0.4 ± 0.03 | 7.8 ± 0.6 | 7.8 ± 0.6 | 0.25 ± 0.01 | 0.9 ± 0.07 | 0.4 ± 0.03 | 1.1 | MBC ([4]; Candida albicans, ATCC10231, read-out: Minimum bactericidal and fungicidal concentrations (MBC, MFC)): 7.8 ± 0.6 µM; selectivity index (SI) (HuTu 80 [6]; [27]): 28; selectivity index (SI) (A549 [10]; [27]): 1.0; IC50 (DU-145 [16]): 0.4 ± 0.03 µM; MIC [17]: 0.5 ± 0.04 µM; MBC [17]: 7.8 ± 0.6 µM; selectivity index (SI) (SK-OV-3 [18]; [27]): 1.0; IC50 (SK-OV-3 [19]): 1.7 ± 0.1 µM; IC50 (Hep G2 [20]): 1.5 ± 0.1 µM; IC50 (PC3 [21]): 1.7 ± 0.1 µM; selectivity index (SI) (PC3 [22]): 1.0; selectivity index (SI) (M-HeLa [23]; [27]): 4.3; selectivity index (SI) (MCF-7 [24]): 1.9; selectivity index (SI) (PANC-1 [25]; [27]): 4.3; MIC [26]: 0.5 ± 0.04 µM; MBC [26]: 1.9 ± 0.1 µM
2 | CCCCCCCCCC[P+](c1ccccc1)(N(CC)CC)N(CC)CC [5d, Decylbis(diethylamino)(phenyl)phosphonium iodide] | 1.9 | 2.5 ± 0.1 | 0.7 ± 0.05 | 250 ± 21 | 0.9 ± 0.08 | 62.5 ± 5.2 | 8.9 ± 0.7 | 0.9 ± 0.08 | 125 ± 11 | 62.5 ± 5.4 | 62.5 ± 5.3 | 0.7 ± 0.06 | 2.9 | 1.4 ± 0.1 | 500 ± 48 | 500 ± 47 | 0.9 ± 0.07 | 125 ± 9 | 1.5 ± 0.1 | 1.2 | Minimum bactericidal and fungicidal concentrations (MBC, MFC) ([4]; Ca): –; selectivity index (SI) (HuTu 80 [6]; [28]): ns (ns—no selectivity); selectivity index (SI) (A549 [10]; [28]): ns (ns—no selectivity); IC50 (DU-145 [16]): 0.45 ± 0.03 µM; MIC [17]: 0.9 ± 0.08 µM; MBC [17]: 500 ± 47 µM; selectivity index (SI) (SK-OV-3 [18]; [28]): ns (ns—no selectivity); IC50 (SK-OV-3 [19]): 10 ± 0.8 µM; IC50 (Hep G2 [20]): 1.1 ± 0.09 µM; IC50 (PC3 [21]): 0.8 ± 0.06 µM; selectivity index (SI) (PC3 [22]): 1.6; selectivity index (SI) (M-HeLa [23]; [28]): ns (ns—no selectivity); selectivity index (SI) (MCF-7 [24]): 1.9; selectivity index (SI) (PANC-1 [25]; [28]): ns (ns—no selectivity); MIC [26]: 15.6 ± 1.2 µM; MBC [26]: 125 ± 9 µM
